In PubChem BioAssay (NCI):
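1) Cells in 96-well plates. 2) Compound, 48 h, 5 concentrations. 3) Linear interpolation between surrounding doses. 4) Unreached endpoint = highest concentration. GI50 marks 50% less growth. Definition used: TGI = concentration required for complete inhibition of growth.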

What was measured:
Assay in all cases: DTP human tumour cell line panel, 48 h
OVCAR-5 ovarian = system: OVCAR-5 ovarian
HOP-62 NSCLC = system: HOP-62 NSCLC
CAKI-1 renal = system: CAKI-1 renal
A549 NSCLC = system: A549 NSCLC
RXF 393 renal = system: RXF 393 renal
HCT-116 colon = system: HCT-116 colon
TK-10 renal = system: TK-10 renal
CCRF-CEM leukemia = system: CCRF-CEM leukemia
ACHN renal = system: ACHN renal
IGROV1 ovarian = system: IGROV1 ovarian
HOP-92 NSCLC = system: HOP-92 NSCLC
BT-549 breast = system: BT-549 breast
OVCAR-3 ovarian = system: OVCAR-3 ovarian
HCT-15 colon = system: HCT-15 colon
MOLT-4 leukemia = system: MOLT-4 leukemia
SF-539 CNS = system: SF-539 CNS
NCI-H226 lung = system: NCI-H226 lung
NCI/ADR-RES ovarian = system: NCI/ADR-RES ovarian
COLO 205 colon = system: COLO 205 colon
UACC-62 melanoma = system: UACC-62 melanoma
786-0 renal = system: 786-0 renal
OVCAR-4 ovarian = system: OVCAR-4 ovarian
U251 CNS = system: U251 CNS
NCI-H460 lung = system: NCI-H460 lung
M14 melanoma = system: M14 melanoma
HCC-2998 colon = system: HCC-2998 colon
SW-620 colon = system: SW-620 colon
MDA-MB-231 breast = system: MDA-MB-231 breast
HL-60(TB) leukemia = system: HL-60(TB) leukemia
MCF7 breast = system: MCF7 breast
EKVX NSCLC = system: EKVX NSCLC
MDA-MB-435 = system: MDA-MB-435
SK-MEL-28 melanoma = system: SK-MEL-28 melanoma
UACC-257 melanoma = system: UACC-257 melanoma
KM12 colon = system: KM12 colon
HT29 colon = system: HT29 colon
PC-3 prostate = system: PC-3 prostate
SK-OV-3 ovarian = system: SK-OV-3 ovarian
MALME-3M melanoma = system: MALME-3M melanoma
K-562 leukemia = system: K-562 leukemia
SF-295 CNS = system: SF-295 CNS
OVCAR-8 ovarian = system: OVCAR-8 ovarian
RPMI-8226 leukemia = system: RPMI-8226 leukemia
SK-MEL-5 melanoma = system: SK-MEL-5 melanoma
SK-MEL-2 melanoma = system: SK-MEL-2 melanoma
HS 578T breast = system: HS 578T breast
SF-268 CNS = system: SF-268 CNS
UO-31 renal = system: UO-31 renal
SR leukemia = system: SR leukemia
SNB-75 CNS = system: SNB-75 CNS
SN12C renal = system: SN12C renal
SNB-19 CNS = system: SNB-19 CNS
NCI-H522 lung = system: NCI-H522 lung
A498 renal = system: A498 renal
DU-145 prostate = system: DU-145 prostate
NCI-H23 lung = system: NCI-H23 lung

`Cc1ccc(O)c(N=Nc2c(O)cc(S(=O)(=O)O)c3ccccc23)c1` was tested, and the TGI (OVCAR-5 ovarian) was > 100 µM, the TGI (HOP-62 NSCLC) was > 100 µM and the TGI (CAKI-1 renal) was > 100 µM. For the same compound, the TGI (A549 NSCLC) was > 100 µM, the TGI (RXF 393 renal) was > 100 µM and the TGI (HCT-116 colon) was 62.5 µM. The TGI (TK-10 renal) was > 100 µM, the TGI (CCRF-CEM leukemia) was > 100 µM and the TGI (ACHN renal) was > 100 µM. The TGI (IGROV1 ovarian) was > 100 µM, the TGI (HOP-92 NSCLC) was > 100 µM and the TGI (BT-549 breast) was > 100 µM. The TGI (OVCAR-3 ovarian) was 76.2 µM, the TGI (HCT-15 colon) was > 100 µM and the TGI (MOLT-4 leukemia) was 95.3 µM. For the same compound, the TGI (SF-539 CNS) was > 100 µM, the TGI (NCI-H226 lung) was > 100 µM and the TGI (NCI/ADR-RES ovarian) was 86.5 µM. For the same compound, the TGI (COLO 205 colon) was > 100 µM, the TGI (UACC-62 melanoma) was > 100 µM and the TGI (786-0 renal) was > 100 µM. For the same compound, the TGI (OVCAR-4 ovarian) was > 100 µM, the TGI (U251 CNS) was > 100 µM and the TGI (NCI-H460 lung) was > 100 µM. For the same compound, the TGI (M14 melanoma) was > 100 µM, the TGI (HCC-2998 colon) was > 100 µM and the TGI (SW-620 colon) was > 100 µM. The TGI (MDA-MB-231 breast) was > 100 µM, the TGI (HL-60(TB) leukemia) was 64 µM and the TGI (MCF7 breast) was > 100 µM. For the same compound, the TGI (EKVX NSCLC) was > 100 µM, the TGI (MDA-MB-435) was > 100 µM and the TGI (SK-MEL-28 melanoma) was > 100 µM. The TGI (UACC-257 melanoma) was > 100 µM, the TGI (KM12 colon) was > 100 µM and the TGI (HT29 colon) was > 100 µM. For the same compound, the TGI (PC-3 prostate) was > 100 µM, the TGI (SK-OV-3 ovarian) was > 100 µM and the TGI (MALME-3M melanoma) was > 100 µM. The TGI (K-562 leukemia) was > 100 µM, the TGI (SF-295 CNS) was > 100 µM and the TGI (OVCAR-8 ovarian) was > 100 µM. The TGI (RPMI-8226 leukemia) was > 100 µM, the TGI (SK-MEL-5 melanoma) was 77.6 µM and the TGI (SK-MEL-2 melanoma) was > 100 µM. For the same compound, the TGI (HS 578T breast) was > 100 µM, the TGI (SF-268 CNS) was > 100 µM and the TGI (UO-31 renal) was 79.6 µM. For the same compound, the TGI (SR leukemia) was > 100 µM.

`CCOC(=O)c1cc(C(=O)c2ccc(Cl)cc2)n2ccc(-c3cc[n+](CC(=O)c4ccc(OC)cc4)cc3)cc12` showed a GI50 (OVCAR-5 ovarian) of 1.82 µM, a TGI (OVCAR-5 ovarian) of 3.69 µM and a GI50 (RXF 393 renal) of 1.4 µM. The TGI (RXF 393 renal) was 3.03 µM, the GI50 (TK-10 renal) was 1.76 µM and the TGI (TK-10 renal) was 3.37 µM. It also gave a GI50 (ACHN renal) of 1.78 µM, a TGI (ACHN renal) of 3.31 µM and a GI50 (SNB-75 CNS) of 1.47 µM. For the same compound, the TGI (SNB-75 CNS) was 3.09 µM, the GI50 (HOP-92 NSCLC) was 1.49 µM and the TGI (HOP-92 NSCLC) was 3.17 µM. The GI50 (OVCAR-3 ovarian) was 1.88 µM, the TGI (OVCAR-3 ovarian) was 3.65 µM and the GI50 (HCT-15 colon) was 1.64 µM. For the same compound, the TGI (HCT-15 colon) was 3.6 µM, the GI50 (SN12C renal) was 1.83 µM and the TGI (SN12C renal) was 3.59 µM. It also gave a GI50 (SNB-19 CNS) of 1.83 µM, a TGI (SNB-19 CNS) of 3.73 µM and a GI50 (SF-539 CNS) of 1.68 µM. It also gave a TGI (SF-539 CNS) of 3.27 µM, a GI50 (NCI/ADR-RES ovarian) of 3.16 µM and a TGI (NCI/ADR-RES ovarian) of 33 µM. The GI50 (UACC-62 melanoma) was 1.82 µM, the TGI (UACC-62 melanoma) was 3.52 µM and the GI50 (OVCAR-4 ovarian) was 1.68 µM. It also gave a TGI (OVCAR-4 ovarian) of 3.4 µM, a GI50 (U251 CNS) of 1.7 µM and a TGI (U251 CNS) of 3.54 µM. For the same compound, the GI50 (SW-620 colon) was 1.38 µM, the TGI (SW-620 colon) was 3.27 µM and the GI50 (MDA-MB-231 breast) was 1.59 µM. It also gave a TGI (MDA-MB-231 breast) of 3.25 µM, a GI50 (NCI-H522 lung) of 1.93 µM and a TGI (NCI-H522 lung) of 3.89 µM. For the same compound, the GI50 (MCF7 breast) was 1.4 µM, the TGI (MCF7 breast) was 3.36 µM and the GI50 (A498 renal) was 1.6 µM. The TGI (A498 renal) was 3.17 µM, the GI50 (EKVX NSCLC) was 1.69 µM and the TGI (EKVX NSCLC) was 3.5 µM. It also gave a GI50 (DU-145 prostate) of 1.69 µM, a TGI (DU-145 prostate) of 3.2 µM and a GI50 (MDA-MB-435) of 1.86 µM. For the same compound, the TGI (MDA-MB-435) was 3.67 µM, the GI50 (SK-MEL-28 melanoma) was 1.89 µM and the TGI (SK-MEL-28 melanoma) was 3.74 µM. For the same compound, the GI50 (UACC-257 melanoma) was 2.21 µM, the TGI (UACC-257 melanoma) was 4.53 µM and the GI50 (NCI-H23 lung) was 1.84 µM. The TGI (NCI-H23 lung) was 3.74 µM, the GI50 (SK-OV-3 ovarian) was 2.01 µM and the TGI (SK-OV-3 ovarian) was 3.62 µM. The GI50 (MALME-3M melanoma) was 2.01 µM, the TGI (MALME-3M melanoma) was 3.98 µM and the GI50 (SF-295 CNS) was 1.7 µM. The TGI (SF-295 CNS) was 3.32 µM, the GI50 (SK-MEL-5 melanoma) was 1.77 µM and the TGI (SK-MEL-5 melanoma) was 3.42 µM. For the same compound, the GI50 (SK-MEL-2 melanoma) was 2.04 µM, the TGI (SK-MEL-2 melanoma) was 4.36 µM and the GI50 (HS 578T breast) was 1.81 µM. The TGI (HS 578T breast) was 4.38 µM, the GI50 (UO-31 renal) was 1.47 µM and the TGI (UO-31 renal) was 2.99 µM.
